Tested on: subjects with idiopathic dilated cardiomyopathy (IDC)
Assay: Serial study of subjects with idiopathic dilated cardiomyopathy treated with β-blocking agents or placebo (LVEF / phenotype)
Type: in vivo, human
Settings: for phenotype: baseline versus after 6 months of treatment; for left ventricular ejection fraction (LVEF): subjects with baseline IDC, 6-7 month period, change versus baseline
Description: Dynamic expression profiling was performed in the intact human heart in 8 subjects with idiopathic dilated cardiomyopathy (IDC), on RNA extracted from RV septal endomyocardial biopsies performed at baseline and after 6 months treatment with β-blocking agents (n=6) or placebo (n=2). Affmetrix™ U95a GeneChips, which contain 12,625 gene sequences/chip, were used for expression profiling.
Endomyocardial biopsies were obtained during a 6-7 month period from eight subjects with baseline idiopathic dilated cardiomyopathy (IDC). Of these subjects, six were treated with the β-blocking agents carvedilol and metoprolol, and two were treated with placebo.
Biopsied samples obtained from these subjects were analyzed by quantitative reverse transcript polymerase chain reaction (QRT PCR), and the mRNAs obtained were further analyzed by Affymetrix Gene chip. Subjects with ideal substantial noise ratios were categorized in the low scaling factor group and those with substantial noise, which compromised quantitation, categorized in the high scaling factor group. Gene expression patterns were further compared between the seven subjects showing improved phenotypes and the one subject showing worsening phenotype. Of the four subjects in the low scaling group showing an improved LVEF, one had received placebo, one carvedilol, and one metoprolol, with the fourth subject treated with placebo showing a decrease LVEF. Of the four subjects in the high scaling group three received carvedilol and one received metoprolol.
Serial measurements of myocardial gene expression were performed on 4 subjects with […], at baseline and after 6 months of treatment with β-blocking agents (n=2, 1 carvediol and 1 metroprolol) or placebo (n=2). RNA was extracted from endomyocardial biopsy material, and expression profiling was performed via Affymetrix U95a GeneChips. […] In the three subjects who improved, a between-subject anaylsis was performed at baseline, and compared to a within-subject comparison between baseline and end of study.

## COc1ccccc1OCCNCC(O)COc1cccc2[nH]c3ccccc3c12 (stereo not shown) [carvedilol]
  phenotype: improvement in phenotype
  left ventricular ejection fraction (LVEF): improved

## COCCc1ccc(OCC(O)CNC(C)C)cc1 (stereo not shown) [metoprolol]
  phenotype: improvement in phenotype
  left ventricular ejection fraction (LVEF): improved

— patent publication US20030096782A1, “Expression profiling in the intact human heart” (The Regents of the University of Colorado, priority 2001, published 2003)
